Results on one compound are retold here after patent US20100173873A1, “TREATMENT OF METASTASIZED TUMORS” (Novartis Vaccines and Diagnostics, Inc., priority 2005, published 2010).

One series addresses Akt⅓. The experiment in a line: In vitro kinase assay, Akt. The series is classed as biochemical. The note with it: RTK table.
The target in another series is ERK-½. The experiment in a line: In vitro kinase assay, ERK. Type of series: biochemical. Particulars: RTK table.
For series [1], the system named is other kinases in the PI3K/Akt and MAPK(K) pathways. The experiment in a line: Selectivity test against other kinases. Type of series: biochemical. The note with it: negligible activity.
Series [2] concerns VEGF production in MV4;11 cells. Briefly: VEGF ELISA on MV4;11 culture supernatants. The series is classed as cell-based. The note with it: Homo sapiens; MV4;11, 48 hours; read-out: EC50 inhibition of VEGF production. (An ELISA detects its analyte on a solid surface through an enzyme-linked reagent.)
In another series the test system is pFLT3 in MV4;11 tumors. Briefly: Target modulation in vivo, pFLT3 in MV4;11 tumors. Particulars: 10 mg/kg/d p.o., 48 hours post dose. More on the design: species or system SCID-NOD mice.
The subject of another series is pERK in MV4;11 tumors. Briefly: Target modulation in vivo, pERK in MV4;11 tumors. Particulars: 10 mg/kg/d p.o. More on the design: species or system SCID-NOD mice. The procedure:
[…]. […] For in vivo target modulation analyses, resected tumors were flash frozen, pulverized and stored at −70° C. prior to lysis with 150 mM NaCl, 1.5 mM MgCl2, 50 mM Hepes, pH 7.5, 10% glycerol, 1.0% Triton X-100, 1 mM EGTA, 50 mM NaF, 1 mM Na3VO4, 2 mM Pefabloc (Roche), and complete protease inhibitor cocktail (Roche). Protein content of the lysates was determined using the BCA assay (Bio-Rad, Hercules, Calif.). Western blot analysis for pERK was performed with a mouse antibody to pERK (1:1000, Cell Signaling, Beverly, Mass.) and incubated at 4° C. overnight. Total ERK level was evaluated by re-probing with antibody against total ERK (Cell Signaling). The membranes were then incubated for 1 hour at RT with 1:5000 horseradish peroxidase-conjugated anti-rabbit IgG (Jackson Immunoresearch, West Grove, Pa.). […] FLT3 or STAT5 phosphorylation was measured by probing with an anti-phosphotyrosine antibody (anti-pFLT3 antibody from Cell Signaling, and anti-pSTAT5 antibody from Upstate). Proteins were detected using enhanced chemiluminescence (ECL; Amersham Biosciences, Buckinghamshire, England) and visualized after exposure to Kodak film. Scanning densitometry was performed to quantify band intensities. […]
[…]. […] Tumors that were harvested after selected time points, were homogenized and analyzed for pFLT3 and pSTAT5 levels by IP/Western blot. […]

Series [3] concerns MV4;11 tumors. The experiment in a line: Subcutaneous MV4;11 xenograft model. The series is classed as in vivo, SCID-NOD mice.
In a further series the test system is PC-3M-luc tumor cells. The experiment in a line: PC-3M-luc bone metastatic prostate model. The series is classed as in vivo, nude mice. How it is done:
Cell lines. Metastatic human prostate cell line PC-3M expressing null p53, del PTEN, VEGFR, FGFR and stably transfected with a construct of luciferase were obtained under a licensing agreement with Xenogen.
In vivo efficacy studies. […]. Animals received sterile rodent chow and water ad libitum and were housed in sterile filter-top cages with 12 hour light/dark cycles. All experiments were conducted under the guidelines of the Association for Assessment and Accreditation of Laboratory Animal Care International. PC-3M luc bone metastatic model. Human prostate cancer cell line PC-3M-luc cells (1.5×10^6 cells) stably transfected with a construct of luciferase were injected via intracardiac injections. Bioluminescent imaging (Xenogen's IVIS® imaging system) was used to non-invasively monitor the in vivo growth and metastasis of PC-3M-luc tumors after cell inoculation. Nearly all PC-3M-luc tumor cell-injected animals developed prostate lesions, which were mainly localized in the femur, and mandibles. […]. Mice were monitored daily and were euthanized when moribund.
Immunohistochemistry. Bone (femurs, mandible) samples were decalcified (Protocol™, Fisher Diagnostics, Middletown, Va.). Paraffin blocks were sectioned to […] thickness and placed on positively charged glass slides. Tissues were stained with hematoxylin and eosin for general tissue morphology and identification of PC-3M cells in bone.
Nude mice were inoculated with PC-3M-Luc cells intracardiacally with 1.5×10^6 cells. […]. The PC-3M-luc cell lines were purchased from Xenogen and the mice were imaged using Xenogen's IVIS® imaging system.

In another series the target is P-glycoprotein (Homo sapiens, UniProt P08183). The experiment in a line: P-glycoprotein substrate status. The series is classed as in vitro ADME.
Series [4] deals with MV4;11 tumors. Particulars: 30 mg/kg/d.
A further series deals with pSTAT5 in MV4;11 tumors. The experiment in a line: Target modulation in vivo, pSTAT5 in MV4;11 tumors. Particulars: Mus musculus, MV4-11, po.
The next series concerns pSTAT5 in MV4;11 cells. The experiment in a line: pSTAT5 in MV4;11 cells (flow cytometry, Western blot). Particulars: Homo sapiens, MV4-11, 3 h, read-out: Inhibition of pSTAT5. A general note: A flow cytometer gives signals particle by particle.
Where [5] appears, read: MV4;11 s.c., 30 mg/kg/d p.o., dose-response study.

Each structure is given as a SMILES string. “Also recorded” adds a separate entry of the source. Read-outs that look alike come from different tables or passages of the source.

P-glycoprotein, sequence (P08183 whole entry): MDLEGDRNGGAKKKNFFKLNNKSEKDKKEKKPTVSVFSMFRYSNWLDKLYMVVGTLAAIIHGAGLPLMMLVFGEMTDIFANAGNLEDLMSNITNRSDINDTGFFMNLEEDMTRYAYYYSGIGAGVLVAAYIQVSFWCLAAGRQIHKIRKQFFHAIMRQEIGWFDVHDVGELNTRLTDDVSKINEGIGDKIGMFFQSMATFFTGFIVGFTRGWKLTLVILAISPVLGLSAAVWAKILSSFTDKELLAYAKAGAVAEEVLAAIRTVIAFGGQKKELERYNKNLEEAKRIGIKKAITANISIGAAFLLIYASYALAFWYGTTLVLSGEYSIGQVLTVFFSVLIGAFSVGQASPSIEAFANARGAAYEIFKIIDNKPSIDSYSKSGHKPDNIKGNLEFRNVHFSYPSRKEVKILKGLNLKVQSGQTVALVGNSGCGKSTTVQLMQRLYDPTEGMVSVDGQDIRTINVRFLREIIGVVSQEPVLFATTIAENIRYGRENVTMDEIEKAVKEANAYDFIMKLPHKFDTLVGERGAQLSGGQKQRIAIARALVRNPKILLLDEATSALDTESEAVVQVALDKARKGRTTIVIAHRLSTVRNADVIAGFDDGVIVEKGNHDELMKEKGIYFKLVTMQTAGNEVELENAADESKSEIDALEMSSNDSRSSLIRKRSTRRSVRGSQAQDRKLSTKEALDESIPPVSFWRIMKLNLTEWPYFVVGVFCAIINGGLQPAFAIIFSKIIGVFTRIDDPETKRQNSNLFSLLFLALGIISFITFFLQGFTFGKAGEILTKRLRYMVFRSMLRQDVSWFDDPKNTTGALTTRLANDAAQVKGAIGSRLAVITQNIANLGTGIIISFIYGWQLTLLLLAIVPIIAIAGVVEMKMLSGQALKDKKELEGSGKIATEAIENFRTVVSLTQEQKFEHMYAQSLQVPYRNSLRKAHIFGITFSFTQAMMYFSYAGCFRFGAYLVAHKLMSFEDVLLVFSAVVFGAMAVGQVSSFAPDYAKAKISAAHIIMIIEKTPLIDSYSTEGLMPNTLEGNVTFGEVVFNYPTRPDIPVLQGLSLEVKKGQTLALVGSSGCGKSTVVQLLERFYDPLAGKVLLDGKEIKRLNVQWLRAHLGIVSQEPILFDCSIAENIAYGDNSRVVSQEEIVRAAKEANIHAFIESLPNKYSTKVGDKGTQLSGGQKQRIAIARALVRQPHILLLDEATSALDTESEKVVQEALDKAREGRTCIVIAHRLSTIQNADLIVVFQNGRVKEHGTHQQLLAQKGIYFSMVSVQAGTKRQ

The term IC50 denotes the concentration at which inhibition is half-maximal. The low end stands for higher potency, the high end for lower potency. Usually EC50 stands for the concentration that produces a half-maximal response. A word on the inhibition: it is the change of the read-out against control, counted positive when it falls. `CN1CCN(c2ccc3nc(-c4c(N)c5c(F)cccc5[nH]c4=O)[nH]c3c2)CC1` [Compound 1, 4-Amino-5-fluoro-3-[6-(4-methylpiperazin-1-yl)-1H-benzimidazol-2-yl]quinolin-2(1H)-one]: the IC50 (against Akt⅓; at ERK-½; in series [1]) was above 10 µM in each case. Further, the EC50 in [2] was in the range of 0.001 to 0.01 µM. Also, the Phospho-FLT3 in tumors entry with pFLT3 in MV4;11 tumors is given as “returned closer to baseline levels”. Also, the “pERK levels in tumors” value with pERK in MV4;11 tumors is listed as “Decreases in pERK levels”. Besides, the “Complete responses (CR)” value turned out to be 1 in the series with MV4;11 tumors [3] (MV4;11 s.c., 30 mg/kg p.o. daily, schedule study (FIG. 4)) and 1 in the series with MV4;11 tumors [3] (setting [5]). In the series with MV4;11 tumors [3] (MV4;11 s.c., 30 mg/kg p.o., intermittent dosage regimens), the “Tumor growth inhibition (TGI)” value is above 94%. The Tumor responses in the series with MV4;11 tumors [3] (setting [5]) is 9/10. For the same compound, the “Doses with significant tumor growth inhibition” value in the series with MV4;11 tumors [3] (MV4;11 s.c., p.o., FIG. 2) is above 5 mg/kg/day. Further, the “Minor responses or stable” value with MV4;11 tumors [3] (large MV4;11 tumors 300, 500 or 1000 mm^3, 30 mg/kg/d, n=27) is 15%. Further, the “Complete responses durable for 40 days after cessation of dosing” value in the series on MV4;11 tumors [3] (large MV4;11 tumors, 30 mg/kg/d for 50 days) was “One CR”. In addition, the “Regression of large MV4;11 tumors” value with MV4;11 tumors [3] (tumors staged at 300, 500 or 1000 mm^3, 30 mg/kg/d) was “significant regression in all MV4;11 tumors; also recorded: induces regression of large MV4;11 tumors”. In addition, in the series on PC-3M-luc tumor cells (50 mg/kg p.o. daily, vs. vehicle), the “Photon counts / metastatic growth of PC-3M-luc cells” value is “trend to inhibit metastatic growth; also recorded: trend of decreased photon count; also recorded: trend to inhibit PC-3M-luc photon counts”. For the same compound, the “Efficacy compared with taxol (15 mg/kg)” value in the series on PC-3M-luc tumor cells (50 mg/kg/d p.o.) is “more effective than taxol treatment”. In addition, at P-glycoprotein, the P-GP substrate status result is “not a P-GP substrate”. Besides, the Phospho-ERK immunohistochemical staining result in the series on MV4;11 tumors [4] (5-day dosing period) was “significantly lowered”. Further, the “Ki67 staining (proliferation)” value with MV4;11 tumors [4] (after 5 doses) is reported as “reduced Ki67 staining”. In addition, the “Apoptosis (activated caspase-3, cleaved PARP staining)” value in the series with MV4;11 tumors [4] (day 5) was “increased activated caspase-3 and cleaved PARP staining”. The inhibition at 10 mg/kg in the series on pSTAT5 in MV4;11 tumors (8 h, read-out: Inhibition of STAT5 phosphorylation in tumors) is around 90%; in the series with pSTAT5 in MV4;11 tumors (24 h, read-out: Inhibition of STAT5 phosphorylation in tumors), around 85%; in the series with pSTAT5 in MV4;11 tumors (48 h, read-out: Inhibition of p-STAT5 in tumors), around 60%. Also, in the series on pSTAT5 in MV4;11 cells, the inhibition at 0.1 µM was above 50%.
